≈ marks a conversion by molar mass, not a printed value. Peptide text beside a SMILES is read from it.
Legend:
[1] = system: S. cerevisiae spp.; type: cell-based, Saccharomyces cerevisiae; settings: 48 h
Description: (§1) Escherichia coli (ATCC 25922), E. coli HB101, Pseudomonas aeruginosa (ATCC 27853), Staphylococcus aureus (ATCC 9144) and Corynebacterium glutamicum (ATCC 13032) were grown at 37°C in Mueller Hinton agar (MH; Difco Laboratories, Detroit, USA). The yeasts Candida albicans (ATCC 10231) and Saccharomyces cerevisiae spp and the mold Botrytis cinerea 101 [33] were cultivated on potato dextrose agar supplemented with 2% glucose at room temperature (RT).
(§2) Fungal spores were dissolved in potato dextrose broth (Difco, Lawrence, KS, USA) and the cell concentration was determined and adjusted after counting in a Bürker chamber. Botrytis cinerea was filtered through a piece of cotton before counting. An aliquot of 50 µl of fungal spores (final concentration 2×10^5 spores/ml) were inoculated in 96-well Nunclon™ microtitre plates (Nagle Nunc Int. Roskilde, Denmark) along with 50 µl of synthetic peptide dissolved in Milli-Q water. Cultures were grown in a dark moist chamber without shaking at 20°C for S. cerevisiae and B. cinerea, and at 37°C for C. albicans. Growth inhibition was determined microscopically after 48 h of incubation. Inhibitory concentrations (IC50) was defined as the lowest concentration tested which yielded less than 50% visible growth compared to the growth control (fungi). Each peptide was tested in parallels in three individual runs for the antimicrobial assays.

[2] = system: E. coli ATCC 25922; type: cell-based, Escherichia coli; settings: ATCC 25922, 24 h
Description: as §1
(§3) Determination of the MIC against bacteria was performed by continuous monitoring of bacterial growth using a Bioscreen C microbiology reader (Labsystems Oy, Helsinki, Finland). The synthetic peptides were tested for antibacterial and antifungal activity at final concentrations (prepared from serial two-fold dilutions) ranging from 0.2 µM to 100 µM. The test was performed in 100-well flat-bottomed honeycomb plates, in which 50 µl peptide solution was incubated with 50 µl of a suspension of an actively growing culture of bacteria diluted to a starting concentration of 2.5×10^5 CFU/ml in Mueller Hinton Broth (MHB). The growth chamber was maintained at 37°C during the incubation period. The absorbance was measured by a turbidometric method with vertical light photometry and a wide band filter (420–580 nm). MIC was defined as the lowest concentration resulting in no visible bacterial growth after 24 h.

[3] = system: Gram-negative bacteria; settings: cited from earlier work
Description: The high standard deviation values only observed at 20 µM (5×MIC) for both the viability assay (Fig. 3) and the membrane integrity assay (Fig. 6) indicate that activity around this concentration was very sensitive to individual assay conditions.

[4] = system: E. coli HB101; assay: Bactericidal assay (killing kinetics, colony counts); type: cell-based, Escherichia coli; settings: 50% MHB, 1×10^6 CFU/ml, 37°C
Description: During incubation, aliquots were removed at different time intervals, washed in buffered high salt solution (10 mM Na-phosphate, 400 mM NaCl, 10 mM MgCl2), diluted and plated on MH plates. The number of bacterial CFU was determined after approximately 48 h of incubation at 37°C.

[5] = system: S. aureus ATCC 9144; type: cell-based, Staphylococcus aureus; settings: ATCC 9144, 24 h
Description: as §1, §3

[6] = system: E. coli HB101; assay: Membrane integrity assay II (propidium iodide, flow cytometry); type: cell-based, Escherichia coli; settings: at MIC; PI flow cytometry
Description: The effect of arasin 1(1–23) and cecropin P1 on membrane permeabilization was also studied by measuring the percentage of propidium iodide (PI) positive cells by flow cytometry. Samples of 1×10^6 cells/ml of E. coli HB101 were incubated in 50% MH with peptides at 37°C for different time span. After incubation, PI (Sigma Aldrich, Saint Louis, MO, USA) was added to the peptide-treated bacteria at a final concentration of 10 µg/ml. The cells were analyzed after 4 min of incubation with PI at 37°C in the flow cytometer as described.

[7] = system: E. coli HB101 constitutively expressing the luxCDABE operon; assay: Cell viability assay (luxCDABE luminescence); type: cell-based, Escherichia coli; settings: at MIC, within the first 10 min after addition of peptide; 50% MH, OD600 0.2, 30°C
Description: E.coli HB101 was transformed with the plasmid pCGLS-11 to enable constitutive bacterial luciferase expression from the luxCDABE operon. The resulting strain was used for cell viability assays as follows. An overnight culture in MH medium with ampicillin (100 µg/ml) was pelleted at 3000×g for 10 min and washed in MH medium before re-suspending the cells in 50% MH medium with a final OD600 of approximately 0.2. After 30 min of incubation at 30°C the cells were again adjusted to an OD600 of 0.2. An aliquot of 95 µl of bacterial solution was dispensed into each well of a black 96 well microtiter plate with transparent bottom (Falcon, Bredford, MA, USA). To achieve the indicated concentrations, a multi-channel pipette was used to add 5 µl of a two-fold dilution series of peptide solution in water to 8 wells simultaneously. The plate was loaded into a Perkin-Elmer Envision microtiter plate reader immediately after addition of the peptide (arasin 1(1–23), PR-39(1–26) or cecropin P1) and the measurement started 30 sec later because of handling events and 2 seconds of shaking inside the plate reader. Light production and growth (OD595) of the sensor bacteria was followed for 3 h under repeated shaking cycles before each measurement at 30°C.

[8] = system: E. coli HB101; assay: Antibacterial MIC assay (Bioscreen C growth monitoring); type: cell-based, Escherichia coli; settings: 50% MH
Description: as §1, §3

[9] = system: C. glutamicum ATCC 13032; type: cell-based, Corynebacterium glutamicum; settings: ATCC 13032, 24 h
Description: as §1, §3

[10] = system: C. albicans ATCC 10231; type: cell-based, Candida albicans; settings: ATCC 10231, 48 h
Description: as §1, §2

[11] = system: P. aeruginosa ATCC 27853; type: cell-based, Pseudomonas aeruginosa; settings: ATCC 27853, 24 h
Description: as §1, §3

[12] = system: B. cinerea 101; type: cell-based, Botrytis cinerea
Description: as §1, §2

[13] = system: E. coli; assay: Antimicrobial activity at varied MH concentration; type: cell-based, Escherichia coli; settings: results not shown
Excerpt: In contrast to the results from E. coli and P. aeruginosa, the C-terminal part of arasin 1(1–23) alone arasin 1(7–23) and 1(9–23) inhibits C. glutamicum and all the fungi. At the same time this antibacterial and antifungal activity is strictly dependent on a fragment between aa 13–23. This indicates a somewhat different mode of action for Gram- negative and Gram-positive bacteria, respectively. Likewise the mode of action against fungi is likely different. It is tempting to speculate that the N-terminal 5–10 amino acids might be involved in arasin 1(1–23) transfer across the outer membrane while the C-terminal part might bind the molecular target which is responsible for growth inhibition at low concentrations. The antimicrobial assays were all performed in MH or potato dextrose medium at a final concentration of 50% strength for bacteria and fungi, respectively. […] This means that the peptides are very sensitive to medium composition, and perhaps also salinity and/or ionic strength. […] In some studies, the use of diluted or poor medium instead of rich medium in MIC and mode of action studies is claimed to increase the sensitivity of the assays, [47]. The reasons of the medium-dependence have not been further evaluated, and 50% MH was used as the standard medium for the mode of action studies.

[14] = system: human red blood cells (RBC); assay: Hemolytic assay; settings: read-out: EC50 (peptide concentration producing 50% hemolysis); 1% RBC suspension in PBS pH 7.4, 37°C, 1 h, absorbance at 550 nm; 100% hemolysis = 0.05% Triton X-100
Description: The erythrocytes were pelleted by centrifugation at 450×g for 10 min and washed three times with phosphate-buffered saline (PBS; 320 mOsm, pH 7.4). The cell pellet was resuspended in 4 ml PBS and adjusted to a suspension giving 10% RBC. The test was performed in a 96 well U-shaped microtiter plate (Nunclon™ Surface, No. 163320; Nagle Nunc Int., Roskilde, Denmark), in which 50 µl peptide were incubated with 40 µl PBS and 10 µl RBC suspension. The synthetic peptides were tested at final concentrations ranging from 0.2 to 100 µM. After incubation in a shaker at 37°C for 1 h, the plate was centrifuged at 200×g for 5 min. The supernatants (60 µl) were carefully transferred to a new flat-bottomed polycarbonate microtiter plate (Nunc™ No. 269620, Nagle Nunc Int., Roskilde, Denmark), and absorbance was measured at 550 nm. Baseline hemolysis and 100% hemolysis were defined as the amount of hemoglobin released in the presence of PBS and 0.05% Triton X-100 (Sigma-Aldrich, Saint Louis, MO, USA), respectively. The EC50 value was taken as the mean concentration of peptide producing 50% hemolysis.

Row | Compound | IC50 [1] [µM] | MIC E. coli ATCC 25922 [2] [µM] | MBC against Gram-negative bacteria [3] [µM] | time to kill all the bacteria [4] | MIC S. aureus ATCC 9144 [5] [µM] | incubation time after which damage of the membrane was induced [6] [min] | reduction of light emitted [7] [%] | MIC E. coli HB101 ([8]; lowest concentration with no visible bacterial growth after 24 h, 37°C, 2.5×10^5 cells/mL, representative of three individual experiments) [µM] | MIC against E. coli HB101 (figure legend) ([8]; value used for mode of action studies) [µM] | MIC C. glutamicum ATCC 13032 [9] [µM] | IC50 [10] [µM] | MIC P. aeruginosa ATCC 27853 [11] [µM] | IC50 B. cinerea 101 ([12]; lowest concentration tested giving less than 50% visible growth vs growth control, potato dextrose medium, 20°C, 48 h, three individual experiments) [µM] | change of antimicrobial activity against E. coli by varying the MH concentration [13] | IC50 ([12]; 101, 48 h) [µM] | EC50 [14] [µM]
1 | CC[C@H](C)[C@H](NC(=O)CNC(=O)[C@H](CCC(=O)O)NC(=O)[C@H](CO)NC(=O)[C@@H](NC(=O)[C@H](CCCNC(=N)N)NC(=O)[C@H](CCCCN)NC(=O)[C@H](CCCCN)NC(=O)[C@H](C)NC(=O)[C@H](CO)NC(=O)[C@H](CC(N)=O)NC(=O)[C@H](CCC(=O)O)NC(=O)[C@H](CC(C)C)NC(=O)[C@H](CCCCN)NC(=O)[C@H](CCCCN)NC(=O)[C@H](C)NC(=O)[C@@H](NC(=O)[C@H](CCCCN)NC(=O)[C@H](CO)NC(=O)[C@H](CC(C)C)NC(=O)[C@H](Cc1c[nH]c2ccccc12)NC(=O)[C@@H](N)CO)[C@@H](C)O)[C@@H](C)CC)C(=O)N[C@@H](C)C(=O)N[C@H](C(=O)N[C@@H](C)C(=O)N[C@H](C(=O)N[C@@H](CCC(N)=O)C(=O)NCC(=O)NCC(=O)N1CCC[C@H]1C(=O)N[C@@H](CCCNC(=N)N)C(=O)O)[C@@H](C)CC)[C@@H](C)CC [Cecropin P1, reference compound] (H-SWLSKTAKKLENSAKKRISEGIAIAIQGGPR-OH; N-terminus and C-terminus assumed) | 6.3 | 0.8 to 1.6 | 1 to 2 | approximately 15 min | >100 | 5 | 60 | 0.8 to 1.6 | 1 (≈ 3.34 µg/mL) | 0.4 to 1.6 | 12.5 | 0.8 to 1.6 | 50 | – | – | –
2 | CC[C@H](C)[C@H](NC(=O)[C@H](CCCNC(=N)N)NC(=O)[C@@H]1CCCN1C(=O)[C@@H]1CCCN1C(=O)[C@H](CC(C)C)NC(=O)[C@H](CCCNC(=N)N)NC(=O)[C@@H]1CCCN1C(=O)[C@@H]1CCCN1C(=O)[C@H](Cc1ccccc1)NC(=O)[C@H](Cc1ccccc1)NC(=O)[C@@H]1CCCN1C(=O)[C@@H]1CCCN1C(=O)[C@@H]1CCCN1C(=O)[C@H](CCCNC(=N)N)NC(=O)[C@@H]1CCCN1C(=O)[C@H](CCCNC(=N)N)NC(=O)[C@@H]1CCCN1C(=O)[C@H](CC(C)C)NC(=O)[C@H](Cc1ccc(O)cc1)NC(=O)[C@@H]1CCCN1C(=O)[C@@H]1CCCN1C(=O)[C@H](CCCNC(=N)N)NC(=O)[C@@H]1CCCN1C(=O)[C@H](CCCNC(=N)N)NC(=O)[C@H](CCCNC(=N)N)NC(=O)[C@@H](N)CCCNC(=N)N)C(=O)O [PR39(1–26), reference compound] (H-RRRPRPPYLPRPRPPPFFPPRLPPRI-OH; N-terminus and C-terminus assumed) | 12.5 | 0.8 to 1.6 | – | – | 50 (≈ 161 µg/mL) | – | – | – | – | 0.4 (≈ 1.29 µg/mL) | 12.5 | 3.1 to 6.3 | – | did not change the antimicrobial activity | 12.5 | –
3 | mellitin B: hemolytic control peptide purchased from Sigma-Aldrich | – | – | – | – | – | – | – | – | – | – | – | – | – | – | – | 2
